Measured values published in ChEMBL document CHEMBL1201862, “PubChem BioAssay data set” (2004).
Active and inactive are the calls of the source.

What was measured:
[1] = target: T1, Microphthalmia-associated transcription factor (Homo sapiens, UniProt O75030); test: TRPM1 promoter luciferase signal decrease, dose response, MITF inhibitor project, cell-based, SK-MEL-5, cherry-picked, set 3 (AID 493073); type: functional
T1 sequence (O75030 whole entry): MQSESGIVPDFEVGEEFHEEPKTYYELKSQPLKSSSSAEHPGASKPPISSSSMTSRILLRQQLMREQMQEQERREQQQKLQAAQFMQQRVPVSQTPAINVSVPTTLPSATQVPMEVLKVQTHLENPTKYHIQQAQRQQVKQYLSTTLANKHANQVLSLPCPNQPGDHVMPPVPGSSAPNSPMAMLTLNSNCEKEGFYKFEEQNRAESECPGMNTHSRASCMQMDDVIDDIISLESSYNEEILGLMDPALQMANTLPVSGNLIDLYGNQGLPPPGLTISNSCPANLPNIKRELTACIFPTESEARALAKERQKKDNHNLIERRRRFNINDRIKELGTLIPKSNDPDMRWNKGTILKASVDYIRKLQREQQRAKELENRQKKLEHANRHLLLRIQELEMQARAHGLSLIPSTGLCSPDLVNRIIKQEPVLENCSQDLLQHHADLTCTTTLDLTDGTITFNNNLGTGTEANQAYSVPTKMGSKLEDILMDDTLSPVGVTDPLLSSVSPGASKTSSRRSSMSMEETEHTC

INS1 = test: beta cell apoptosis inhibitors, cytokine rescue, dose response, luminescence, retest (AID 449756); type: functional, cell-based; settings: Rattus norvegicus;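 further: cell death triggered by IL-1 beta plus TNF-alpha plus IFN-gamma mixture; protective hits raise ATP signal compared with cytokine alone wells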
[2] = miR-122 activators in hepatoma reporter cells, dose response, cell-based, Huh7 psiCHECK-miR122, Renilla luciferase, cherry-picked (AID 651956); type: functional;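 further: huh7 hepatoma cells stably carrying a psiCHECK-2 miR-122 sensor plasmid; renilla luciferase signal reporting endogenous miR-122 activity after 48 h compound exposure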
[3] = HEK293T cytotoxicity, dose response, cytotoxicity control for miR-122 modulator project, cell-based, inhibitor set, cherry-pick, set 2 (AID 720697); type: functional
[4] = HEK293T cytotoxicity, dose response, cytotoxicity control for miR-122 modulator project, cell-based, activator set, cherry-pick (AID 720690); type: functional;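 further: HEK293T human cells scored for general mammalian cytotoxicity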
Paired box protein Pax-8 = Paired box protein Pax-8 (Homo sapiens, UniProt Q06710); test: inhibitors of PAX8-driven TPO luciferase reporter, dose response, RMG-I cells, cherry-pick (AID 687027); type: functional, cell-based;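 further: luciferase reporter driven by Pax8 target thyroperoxidase promoter measured by SteadyGlo luminescence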
Sequence of Paired box protein Pax-8 (Q06710 whole entry): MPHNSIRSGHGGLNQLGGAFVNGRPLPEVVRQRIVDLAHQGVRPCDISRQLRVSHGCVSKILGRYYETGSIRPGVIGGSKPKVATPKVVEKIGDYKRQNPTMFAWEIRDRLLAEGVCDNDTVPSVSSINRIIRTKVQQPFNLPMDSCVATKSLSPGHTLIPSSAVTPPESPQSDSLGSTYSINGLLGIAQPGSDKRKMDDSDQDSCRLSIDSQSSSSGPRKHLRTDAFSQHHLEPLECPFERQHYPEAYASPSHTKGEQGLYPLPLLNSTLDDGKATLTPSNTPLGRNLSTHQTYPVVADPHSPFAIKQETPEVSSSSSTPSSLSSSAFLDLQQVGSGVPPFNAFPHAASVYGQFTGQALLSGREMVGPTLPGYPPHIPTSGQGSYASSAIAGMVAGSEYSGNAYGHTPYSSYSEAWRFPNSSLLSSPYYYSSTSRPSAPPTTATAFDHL

[5] = NIH:OVCAR-3 ovarian cancer cell cytotoxicity, dose response, PAX8 inhibitor project, plate reader, dry powder samples (AID 743044); type: functional, cell-based
[6] = IGROV1 ovarian cancer cell cytotoxicity, dose response, PAX8 inhibitor project, plate reader, dry powder samples (AID 743043); type: functional, cell-based; settings: IGROV-1
[7] = cytotoxicity in OVCAR8 ovarian cancer cells, dose response, PAX8 project, cell-based, plate reader, dry powder samples (AID 743197); type: functional; settings: OVCAR-8
[8] = Late-stage results from the probe development effort to identify antagonists of arginine vasopressin receptor 1a (AVPR1a): fluorescence-based cell-based dose response AVPR1a inhibition assay.; type: functional
Vasopressin V1b receptor = Vasopressin V1b receptor (Homo sapiens, UniProt P47901); test: Late-stage results from the probe development effort to identify antagonists of arginine vasopressin receptor 1a (AVPR1a): fluorescence-based cell-based dose response AVPR1b inhibition counterscreen assay.; type: functional
Sequence of Vasopressin V1b receptor (P47901 whole entry): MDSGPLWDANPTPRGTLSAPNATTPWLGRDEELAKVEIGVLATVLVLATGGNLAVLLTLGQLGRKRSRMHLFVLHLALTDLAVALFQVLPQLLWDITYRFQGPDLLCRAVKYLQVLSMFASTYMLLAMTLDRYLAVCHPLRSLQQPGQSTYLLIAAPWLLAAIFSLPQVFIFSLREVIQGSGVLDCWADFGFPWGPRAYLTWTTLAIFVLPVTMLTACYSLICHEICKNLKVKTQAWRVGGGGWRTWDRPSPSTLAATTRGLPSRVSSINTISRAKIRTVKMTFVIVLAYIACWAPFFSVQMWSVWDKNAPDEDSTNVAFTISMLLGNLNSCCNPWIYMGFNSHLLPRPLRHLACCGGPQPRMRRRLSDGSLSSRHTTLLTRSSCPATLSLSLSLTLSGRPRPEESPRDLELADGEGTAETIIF

Vasopressin V2 receptor = Vasopressin V2 receptor (Homo sapiens, UniProt P30518); test: Late-stage results from the probe development effort to identify antagonists of arginine vasopressin receptor 1a (AVPR1a): fluorescence-based cell-based dose response AVPR2 inhibition counterscreen assay.; type: functional
Sequence of Vasopressin V2 receptor (P30518 whole entry): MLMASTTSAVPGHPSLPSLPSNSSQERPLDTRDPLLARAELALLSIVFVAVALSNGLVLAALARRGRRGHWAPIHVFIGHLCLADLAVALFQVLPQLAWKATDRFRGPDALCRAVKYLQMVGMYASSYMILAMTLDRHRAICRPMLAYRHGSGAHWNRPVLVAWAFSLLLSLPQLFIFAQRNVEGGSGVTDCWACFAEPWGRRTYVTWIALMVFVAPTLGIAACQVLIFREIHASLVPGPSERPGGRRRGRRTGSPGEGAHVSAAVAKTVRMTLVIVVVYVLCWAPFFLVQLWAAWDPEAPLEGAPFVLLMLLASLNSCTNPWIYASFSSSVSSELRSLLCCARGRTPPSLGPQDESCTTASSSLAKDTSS

[9] = Late-stage results from the probe development effort to identify antagonists of arginine vasopressin receptor 1a (AVPR1a): fluorescence-based cell-based dose response OXTR inhibition counterscreen assay.; type: functional
[10] = A375 melanoma cell viability loss, dose response, counter-screen for MITF inhibitor project, CellTiter-Glo luminescence, dry powder, set 4 (AID 624364); type: functional, cell-based; settings: A-375;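 further: A375 melanoma cells are MITF independent so this is a counter screen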
[11] = A375 melanoma cell cytotoxicity, dose response, counter-screen for MITF inhibitor project, CellTiter-Glo luminescence, dry powder, set 2 (AID 624489); type: functional, cell-based; settings: A-375;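 further: actives are compounds lowering A375 viability meaning general cytotoxicity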
[12] = target: Potassium channel subfamily K member 3 (Homo sapiens, UniProt O14649); test: TASK1 (KCNK3) potassium channel inhibitors, SAR follow-up, CHO cells, FluxOR thallium flux (AID 652212); type: functional
Sequence of Potassium channel subfamily K member 3 (O14649 whole entry): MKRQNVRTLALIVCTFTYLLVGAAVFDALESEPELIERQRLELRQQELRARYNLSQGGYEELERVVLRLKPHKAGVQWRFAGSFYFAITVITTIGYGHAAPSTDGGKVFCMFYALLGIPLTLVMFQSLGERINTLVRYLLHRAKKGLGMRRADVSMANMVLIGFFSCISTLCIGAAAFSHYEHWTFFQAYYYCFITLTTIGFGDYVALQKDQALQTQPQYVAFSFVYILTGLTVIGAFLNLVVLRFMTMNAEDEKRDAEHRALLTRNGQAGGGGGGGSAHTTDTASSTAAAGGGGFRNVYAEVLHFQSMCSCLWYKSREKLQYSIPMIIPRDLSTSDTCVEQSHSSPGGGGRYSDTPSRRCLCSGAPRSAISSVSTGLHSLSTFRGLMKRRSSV

[13] = HepG2 hepatoma cell cytotoxicity, dose response, cytotoxicity control, CellTiter-Glo luminescence, dry powder, set 3 (AID 720594); type: functional, cell-based
[14] = AlphaScreen signal interference by compounds, dose response, artefact control for ARNT/TACC3 disruptor project, biochemical, dual-tagged ARNT, dry powder (AID 720564)
[15] = target: Protein disulfide-isomerase A6 (Homo sapiens, UniProt Q15084); test: Secondary Assay for Selectivity of PDI Inhibitors (against ERp5) Measured in Biochemical System Using Plate Reader - 2137-04_Inhibitor_Dose_DryPowder_Activity_Set3.
Sequence of Protein disulfide-isomerase A6 (Q15084 whole entry): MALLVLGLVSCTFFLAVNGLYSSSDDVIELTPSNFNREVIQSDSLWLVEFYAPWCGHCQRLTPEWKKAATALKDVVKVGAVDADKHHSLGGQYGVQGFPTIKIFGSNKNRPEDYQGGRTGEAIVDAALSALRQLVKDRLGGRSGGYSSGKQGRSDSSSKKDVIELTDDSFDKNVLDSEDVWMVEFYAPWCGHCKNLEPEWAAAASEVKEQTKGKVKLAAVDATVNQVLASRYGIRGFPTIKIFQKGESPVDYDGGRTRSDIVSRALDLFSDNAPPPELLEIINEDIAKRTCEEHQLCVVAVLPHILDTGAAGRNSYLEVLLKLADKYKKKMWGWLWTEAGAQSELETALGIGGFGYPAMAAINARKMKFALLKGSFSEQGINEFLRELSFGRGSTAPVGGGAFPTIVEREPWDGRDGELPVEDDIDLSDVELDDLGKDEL

[16] = HeLa cell cytotoxicity, dose response, cytotoxicity control, ATP luminescence, dry powder (AID 652117); type: functional, cell-based
[17] = target: Protein disulfide-isomerase (Homo sapiens, UniProt P07237); test: PDI inhibitors, insulin turbidity readout, confirmation, biochemical, dry powder samples, set 2 (AID 652146)
Sequence of Protein disulfide-isomerase (P07237 whole entry): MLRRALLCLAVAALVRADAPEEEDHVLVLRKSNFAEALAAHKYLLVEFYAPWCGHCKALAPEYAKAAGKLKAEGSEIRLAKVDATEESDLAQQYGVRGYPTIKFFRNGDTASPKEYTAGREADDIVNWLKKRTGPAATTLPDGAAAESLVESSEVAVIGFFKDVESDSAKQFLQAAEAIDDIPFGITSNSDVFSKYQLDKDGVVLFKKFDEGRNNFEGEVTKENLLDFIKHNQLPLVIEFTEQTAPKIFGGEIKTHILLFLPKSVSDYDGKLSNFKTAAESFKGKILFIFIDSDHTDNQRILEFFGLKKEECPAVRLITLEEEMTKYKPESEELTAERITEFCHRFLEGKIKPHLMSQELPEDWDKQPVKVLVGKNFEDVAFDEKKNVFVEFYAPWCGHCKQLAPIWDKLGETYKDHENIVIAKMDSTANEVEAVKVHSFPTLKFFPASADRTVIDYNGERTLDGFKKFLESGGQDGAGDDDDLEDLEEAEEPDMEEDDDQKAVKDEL

[18] = HepG2 cell cytotoxicity, dose response, cytotoxicity control, cherry-picks, set 5 (AID 1053118); type: functional, cell-based
[19] = HEK293 cell cytotoxicity, dose response, cytotoxicity control, cherry-picks, set 5 (AID 1053117); type: functional, cell-based

For `Oc1c(Cl)cc(Cl)cc1/C=N/Nc1ncc(Br)cn1`, the AC50 [1] was 7.84 µM (active), the AC50 (INS1) was 0.388 µM (active) and the AC50 [2] was 54.3 µM (active). For the same compound, the AC50 [3] was 5.81 µM (active) and the AC50 [4] was 22.9 µM (active).

With `Cc1ccc(-c2ccc([C@H]3[C@H](CO)N4CCCCN(S(=O)(=O)c5cccc(C)c5)C[C@@H]34)cc2)cc1` the AC50 (Paired box protein Pax-8) was 8.11 µM (active), the AC50 [5] was 31.7 µM (active) and the AC50 [6] was 55.4 µM (active). The AC50 [7] was 46 µM (active).

With `Cc1cccnc1N1CCN(C(=O)N(CC2CC2)c2ccc(Cl)cc2)CC1` the IC50 [8] was 0.0084 µM (active), the IC50 (Vasopressin V1b receptor) was > 50 µM (inactive) and the IC50 (Vasopressin V2 receptor) was > 50 µM (inactive). For the same compound, the IC50 [9] was > 50 µM (inactive).

For `O=C1C(NS(=O)(=O)c2ccc(Br)cc2)=C(N2CCSCC2)C(=O)c2ccccc21`, the AC50 [10] was > 70 µM (inactive) and the AC50 [11] was > 70 µM (inactive).

With `Cc1cccc(S(=O)(=O)Nc2cccc(NC(=O)c3ccccc3)c2)c1` the IC50 [12] was 1.45 µM (active).

With `CC1CCN(S(=O)(=O)c2ccc(C(=O)Nc3nnc(-c4cccs4)o3)cc2)CC1` the AC50 [13] was > 52 µM (inactive) and the AC50 [14] was 116 µM (active).

In the case of `CC(C)OC(=O)C1(CCOc2ccccc2)CCN(Cc2ccc(O)c(Cl)c2)CC1`, the AC50 [15] was 30 µM (inactive), the AC50 [16] was 47.9 µM (active) and the AC50 [17] was 1 µM (active).

With `N#Cc1ccc(-c2ccc3c(c2)[C@H]2[C@H](CCN2S(=O)(=O)c2cccc(F)c2)[C@@H](CO)N3)cc1` the AC50 [18] was 38.1 µM (active) and the AC50 [19] was 32.8 µM (active).
